For experiment [1], the target named is Epidermal growth factor receptor (Homo sapiens, UniProt P00533). Briefly: Inhibition of EGFR (unknown origin).
The subject of experiment [2] is PC-3. Put plainly: Antiproliferative activity against human PC3 cells by MTS assay. The class given is functional. A general note: Formazan colour is commonly taken as a measure of viable cells.
The test system of experiment [3] is HT-29. Briefly: Antiproliferative activity against human HT-29 cells by MTS assay. Format: functional.
In experiment [4] the test system is MCF7. Put plainly: Antiproliferative activity against human MCF7 cells by MTS assay. The class given is functional.
For experiment [5], the target named is Vascular endothelial growth factor receptor 2 (Homo sapiens, UniProt P35968). Put plainly: Inhibition of VEGFR2 (unknown origin).
Sequence of Vascular endothelial growth factor receptor 2 (P35968 whole entry): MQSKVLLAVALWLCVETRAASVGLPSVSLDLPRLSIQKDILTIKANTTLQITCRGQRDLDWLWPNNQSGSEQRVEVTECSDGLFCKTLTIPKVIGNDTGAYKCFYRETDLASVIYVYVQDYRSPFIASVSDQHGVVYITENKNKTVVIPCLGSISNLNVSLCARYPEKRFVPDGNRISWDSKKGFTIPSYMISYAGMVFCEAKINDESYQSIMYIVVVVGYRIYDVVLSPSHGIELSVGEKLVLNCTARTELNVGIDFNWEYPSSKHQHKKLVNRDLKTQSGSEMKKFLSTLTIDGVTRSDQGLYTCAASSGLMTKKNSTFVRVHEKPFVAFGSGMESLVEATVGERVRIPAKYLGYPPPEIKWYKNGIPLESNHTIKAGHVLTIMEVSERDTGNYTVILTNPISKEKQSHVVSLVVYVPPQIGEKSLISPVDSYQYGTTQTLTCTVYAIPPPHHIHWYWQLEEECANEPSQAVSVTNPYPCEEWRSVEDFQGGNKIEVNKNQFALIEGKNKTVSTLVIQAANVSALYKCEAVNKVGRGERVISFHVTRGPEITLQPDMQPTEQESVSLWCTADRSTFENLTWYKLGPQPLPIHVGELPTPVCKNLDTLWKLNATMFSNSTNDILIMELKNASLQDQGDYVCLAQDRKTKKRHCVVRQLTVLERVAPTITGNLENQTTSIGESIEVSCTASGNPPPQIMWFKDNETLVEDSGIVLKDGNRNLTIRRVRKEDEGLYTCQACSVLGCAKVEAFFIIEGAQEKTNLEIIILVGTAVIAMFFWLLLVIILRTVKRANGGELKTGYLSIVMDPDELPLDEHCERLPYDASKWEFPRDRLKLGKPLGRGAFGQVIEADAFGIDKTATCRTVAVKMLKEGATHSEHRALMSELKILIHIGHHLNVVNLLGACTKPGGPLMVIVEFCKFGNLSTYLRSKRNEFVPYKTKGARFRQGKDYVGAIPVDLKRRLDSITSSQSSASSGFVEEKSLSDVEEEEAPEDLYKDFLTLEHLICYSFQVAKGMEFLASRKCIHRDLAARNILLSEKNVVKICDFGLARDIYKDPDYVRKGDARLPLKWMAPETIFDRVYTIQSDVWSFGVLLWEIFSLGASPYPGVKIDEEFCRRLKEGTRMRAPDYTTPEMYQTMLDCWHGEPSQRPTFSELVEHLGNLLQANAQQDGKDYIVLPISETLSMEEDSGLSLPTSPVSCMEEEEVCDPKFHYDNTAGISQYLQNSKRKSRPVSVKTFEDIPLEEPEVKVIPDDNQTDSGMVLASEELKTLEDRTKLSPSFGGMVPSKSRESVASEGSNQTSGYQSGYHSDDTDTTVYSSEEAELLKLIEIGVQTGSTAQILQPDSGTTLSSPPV
Experiment [6] can be described thus: Antiproliferative activity against human EAhy926 cells by MTS assay. The class given is functional, cell-based. As to conditions: EA.hy 926.
Experiment [7] concerns PC-3. Put plainly: Antiproliferative activity against human PC3 cells at 10 uM by MTS assay. The class given is functional, cell-based.
The subject of experiment [8] is HT-29. Briefly: Antiproliferative activity against human HT-29 cells at 10 uM by MTS assay. The class given is functional, cell-based.
Experiment [9] concerns MCF7. Put plainly: Antiproliferative activity against human MCF7 cells […] by MTS assay. Format: functional, cell-based.

Sequence of Epidermal growth factor receptor (P00533 whole entry): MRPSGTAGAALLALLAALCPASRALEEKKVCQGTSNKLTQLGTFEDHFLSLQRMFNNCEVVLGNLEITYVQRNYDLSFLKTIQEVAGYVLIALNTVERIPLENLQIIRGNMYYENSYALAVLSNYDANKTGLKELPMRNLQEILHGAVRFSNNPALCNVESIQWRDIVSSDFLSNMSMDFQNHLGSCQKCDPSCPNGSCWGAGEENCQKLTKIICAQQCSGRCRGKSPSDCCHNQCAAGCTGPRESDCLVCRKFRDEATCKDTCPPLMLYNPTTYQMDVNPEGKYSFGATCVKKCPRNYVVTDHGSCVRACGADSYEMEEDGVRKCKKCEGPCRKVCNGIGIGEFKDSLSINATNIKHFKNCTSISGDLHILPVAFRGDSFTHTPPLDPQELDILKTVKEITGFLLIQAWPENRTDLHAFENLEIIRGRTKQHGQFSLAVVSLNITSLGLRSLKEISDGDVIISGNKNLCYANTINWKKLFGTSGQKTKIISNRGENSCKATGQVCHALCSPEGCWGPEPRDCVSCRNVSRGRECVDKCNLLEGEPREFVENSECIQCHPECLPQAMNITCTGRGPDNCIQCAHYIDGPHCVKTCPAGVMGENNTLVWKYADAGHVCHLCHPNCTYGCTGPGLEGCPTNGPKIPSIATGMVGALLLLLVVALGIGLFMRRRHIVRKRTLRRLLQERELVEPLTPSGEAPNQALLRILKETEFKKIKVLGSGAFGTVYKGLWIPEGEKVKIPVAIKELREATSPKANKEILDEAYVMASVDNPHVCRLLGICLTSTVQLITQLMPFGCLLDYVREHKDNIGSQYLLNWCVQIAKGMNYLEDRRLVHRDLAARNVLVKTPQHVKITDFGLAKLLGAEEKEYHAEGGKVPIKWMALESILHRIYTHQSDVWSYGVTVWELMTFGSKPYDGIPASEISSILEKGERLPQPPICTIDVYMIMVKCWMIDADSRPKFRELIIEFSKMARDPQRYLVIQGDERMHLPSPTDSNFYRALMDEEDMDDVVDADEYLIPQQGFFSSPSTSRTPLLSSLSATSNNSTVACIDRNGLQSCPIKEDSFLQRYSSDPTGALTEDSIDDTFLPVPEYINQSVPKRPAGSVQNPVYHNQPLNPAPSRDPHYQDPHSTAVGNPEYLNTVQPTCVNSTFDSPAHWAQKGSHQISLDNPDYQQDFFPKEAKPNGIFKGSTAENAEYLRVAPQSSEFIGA

As usually defined, the IC50 is the point on the concentration scale where inhibition reaches its midpoint. A low value points to inhibition by little substance. Take `CCCOC(=O)Nc1ccc(Nc2ncnc3cc(OC)c(OC)cc23)cc1Cl`: in experiment [1], the midpoint of inhibition, the IC50, lay at 1 µM.
`CCCCOC(=O)Nc1ccc(Nc2ncnc3cc(OC)c(OC)cc23)cc1Cl`: in [1], it took 6.4 µM to reach half-maximal inhibition (IC50).
On to `CCOC(=O)Nc1cc(Cl)c(Nc2ncnc3cc(OC)c(OC)cc23)cc1Cl.Cl`, for which the “inhibition (INH)” value in the experiment with PC-3 [2] came to 0%; in the experiment with HT-29 [3], 5%; with MCF7 [4], 6%. The molecule also had an IC50 in experiment [1] of over 10 µM.
In the same order, the values of `CCNC(=O)Nc1cc(Cl)c(Nc2ncnc3cc(OC)c(OC)cc23)cc1Cl.Cl` are 11%, 16%, 21% and over 10 µM.
The like results for `CCCCNC(=O)Nc1cc(Cl)c(Nc2ncnc3cc(OC)c(OC)cc23)cc1Cl.Cl` were, in that order, 0%, 3%, 0% and over 10 µM.
In the same order, the values of `COc1cc2ncnc(Nc3ccc(NC(C)=O)c(C)c3)c2cc1OC.Cl` are 0%, 0%, 0% and over 10 µM.
With `CCC(=O)Nc1ccc(Nc2ncnc3cc(OC)c(OC)cc23)cc1C.Cl`, the “inhibition (INH)” value in the experiment on PC-3 [2] is given as 0%; with HT-29 [3], 0%; in the experiment with MCF7 [4], 28%. Also, the half-inhibitory concentration (IC50) in experiment [1] is over 10 µM.
Take `CCCC(=O)Nc1ccc(Nc2ncnc3cc(OC)c(OC)cc23)cc1C`: the 50% inhibitory concentration (IC50) is over 10 µM in experiment [1] and 4.3 µM in experiment [5].
Molecule `CCCCC(=O)Nc1ccc(Nc2ncnc3cc(OC)c(OC)cc23)cc1C` displayed a half-inhibitory concentration (IC50) in experiment [1] of over 10 µM.
As to `CCOC(=O)Nc1ccc(Nc2ncnc3cc(OCCN(CC)CC)c(OC)cc23)cc1C`, the IC50 was over 10 µM in [6]; over 10 µM in the experiment on PC-3 [7]; over 10 µM with HT-29 [8]; over 10 µM in the experiment with MCF7 [9]; over 10 µM in experiment [1]; 3.7 µM in [5].
As for `CCOC(=O)Nc1ccc(Nc2ncnc3cc(OC)c(OCCN(CC)CC)cc23)cc1C`, the IC50 in [6] is over 10 µM; in the experiment with PC-3 [7], over 10 µM; in the experiment on HT-29 [8] it was over 10 µM; in the experiment on MCF7 [9] it was over 10 µM; in experiment [1], over 10 µM; in experiment [5] it was 7.2 µM.
As to `CCOC(=O)Nc1ccc(Nc2ncnc3cc(OCCN4CCCCC4)c(OC)cc23)cc1C`, the IC50 in experiment [6] was 9.3 µM; in the experiment on PC-3 [7], over 10 µM; in the experiment with HT-29 [8] it was 5.2 µM; with MCF7 [9], over 10 µM; in experiment [1], over 10 µM; in experiment [5], 0.9 µM.
As for `CCOC(=O)Nc1ccc(Nc2ncnc3cc(OCCN4CCOCC4)c(OC)cc23)cc1C`, the half-inhibitory concentration (IC50) is over 10 µM in experiment [6]; over 10 µM with PC-3 [7]; over 10 µM in the experiment on HT-29 [8]; over 10 µM with MCF7 [9]; 8 µM in [1]; 0.4 µM in [5].
The molecule `CCCOc1cc2ncnc(Nc3ccc(NC(=O)OCC)c(C)c3)c2cc1OC` registered an IC50 in experiment [1] of 3.9 µM.
On to `CCCCOc1cc2c(Nc3ccc(NC(=O)OCC)c(C)c3)ncnc2cc1OCCN(CC)CC`, for which the 50% inhibitory concentration (IC50) in experiment [6] is 8.1 µM; in the experiment on PC-3 [7], over 10 µM; in the experiment with MCF7 [9] it was over 10 µM; in [1] it was over 10 µM; in [5], 5.7 µM.
Regarding `CCOC(=O)Nc1ccc(Nc2ncnc3cc(OCCN(CC)CC)c(OC)cc23)cc1Cl`, the 50% inhibitory concentration (IC50) in [6] is 6.2 µM; in the experiment on PC-3 [7] it was over 10 µM; with MCF7 [9], over 10 µM; in experiment [1] it was over 10 µM; in experiment [5] it was 3.3 µM.
For the molecule `CCOC(=O)Nc1ccc(Nc2ncnc3cc(OCCN4CCCCC4)c(OC)cc23)cc1Cl`, the 50% inhibitory concentration (IC50) is 9.3 µM in experiment [6]; over 10 µM in the experiment on PC-3 [7]; 5.2 µM with HT-29 [8]; 3 µM in the experiment with MCF7 [9]; over 10 µM in experiment [1]; 0.8 µM in experiment [5].
On to `CCOC(=O)Nc1ccc(Nc2ncnc3cc(OCCN4CCOCC4)c(OC)cc23)cc1Cl`, for which the IC50 was over 10 µM in [6]; over 10 µM with PC-3 [7]; over 10 µM with HT-29 [8]; over 10 µM in the experiment on MCF7 [9]; 8.5 µM in experiment [1]; 0.3 µM in [5].
Regarding `CCCOc1cc2ncnc(Nc3ccc(NC(=O)OCC)c(Cl)c3)c2cc1OC`, in experiment [1], inhibition was half-maximal at 5.5 µM (IC50).
With `CCCCOc1cc2c(Nc3ccc(NC(=O)OCC)c(Cl)c3)ncnc2cc1OCCN(CC)CC`, the IC50 in [6] is 2.8 µM; with PC-3 [7] it was over 10 µM; in [1], 9.8 µM; in [5] it was 4.8 µM.
As to `CCCOC(=O)Nc1ccc(Nc2ncnc3cc(OC)c(OC)cc23)cc1`, half-maximal inhibition in experiment [1] (IC50) required 7.05 µM.
In experiment [1], `CCCCOC(=O)Nc1ccc(Nc2ncnc3cc(OC)c(OC)cc23)cc1` showed a concentration for half-maximal inhibition (IC50) of 0.8 µM.
Still for that read-out and setting: for `COC(=O)Nc1ccc(Nc2ncnc3cc(OC)c(OC)cc23)cc1C` the value was 4 µM.
`CCOC(=O)Nc1ccc(Nc2ncnc3cc(OC)c(OC)cc23)cc1C` registered an IC50 in experiment [1] of 0.9 µM.
On to `CCOC(=O)Nc1cc(Nc2ncnc3cc(OC)c(OC)cc23)ccc1C`, for which the half-inhibitory concentration (IC50) in [1] turned out to be 5 µM.
As for `CCCCOC(=O)Nc1ccc(Nc2ncnc3cc(OC)c(OC)cc23)cc1C`, the results for the IC50 in [1] and in [5] were 7.6 µM and 5.2 µM, respectively.
Consider `COC(=O)Nc1ccc(Nc2ncnc3cc(OC)c(OC)cc23)cc1Cl`, for which the IC50 came out at 6.15 µM in [1] and 5.05 µM in [5].
As for `COC(=O)Nc1cc(Nc2ncnc3cc(OC)c(OC)cc23)ccc1Cl.Cl`, the results for the “inhibition (INH)” value in the experiment with PC-3 [2], with HT-29 [3] and in the experiment with MCF7 [4] were 3%, 0% and 0%, respectively. This molecule also returned an IC50 in [1] of over 10 µM.
In experiment [1], `CCOC(=O)Nc1ccc(Nc2ncnc3cc(OC)c(OC)cc23)cc1Cl` returned an IC50 of 1 µM.
The molecule `CCOC(=O)Nc1cc(Nc2ncnc3cc(OC)c(OC)cc23)ccc1Cl` returned an IC50 in [1] of 0.9 µM.
In the case of `COc1cc2/c(=N/c3ccc(Br)cc3F)nc[nH]c2cc1OCC1CCN(C)CC1` [VANDETANIB], the “inhibition (INH)” value in the experiment with PC-3 [2] came out at 33%; in the experiment on MCF7 [4] it was 26%.

The record behind these values is ChEMBL document CHEMBL3217416, “[4-(6,7-Disubstituted quinazolin-4-ylamino)phenyl] carbamic acid esters: a novel series of dual EGFR/VEGFR-2 tyrosine kinase inhibitors” (Medchemcomm, 2011).
